Measurements published in patent publication US20230113037A1 (Bayer Aktiengesellschaft, priority 2019, published 2023).
pIC50: −log10 of the molar value. Like-named read-outs stand apart in the source and are kept apart here.

Key:
AHR [1] = target: T1, AHR (Homo sapiens, UniProt P35869); assay: In vitro assay 1: antagonism in human cell line (AHR transactivation, firefly luciferase reporter, kynurenic acid prestimulated); assay type: cell-based; conditions: AHR Antagonism Human IC50 [M], firefly luciferase reporter
T1 construct: U87 MG glioblastoma cells (ATCC #HTB-14) endogenously expressing AHR; endogenous in cells; host or cells: U87 MG glioblastoma cells (ATCC #HTB-14)
T1 sequence (P35869 11-848): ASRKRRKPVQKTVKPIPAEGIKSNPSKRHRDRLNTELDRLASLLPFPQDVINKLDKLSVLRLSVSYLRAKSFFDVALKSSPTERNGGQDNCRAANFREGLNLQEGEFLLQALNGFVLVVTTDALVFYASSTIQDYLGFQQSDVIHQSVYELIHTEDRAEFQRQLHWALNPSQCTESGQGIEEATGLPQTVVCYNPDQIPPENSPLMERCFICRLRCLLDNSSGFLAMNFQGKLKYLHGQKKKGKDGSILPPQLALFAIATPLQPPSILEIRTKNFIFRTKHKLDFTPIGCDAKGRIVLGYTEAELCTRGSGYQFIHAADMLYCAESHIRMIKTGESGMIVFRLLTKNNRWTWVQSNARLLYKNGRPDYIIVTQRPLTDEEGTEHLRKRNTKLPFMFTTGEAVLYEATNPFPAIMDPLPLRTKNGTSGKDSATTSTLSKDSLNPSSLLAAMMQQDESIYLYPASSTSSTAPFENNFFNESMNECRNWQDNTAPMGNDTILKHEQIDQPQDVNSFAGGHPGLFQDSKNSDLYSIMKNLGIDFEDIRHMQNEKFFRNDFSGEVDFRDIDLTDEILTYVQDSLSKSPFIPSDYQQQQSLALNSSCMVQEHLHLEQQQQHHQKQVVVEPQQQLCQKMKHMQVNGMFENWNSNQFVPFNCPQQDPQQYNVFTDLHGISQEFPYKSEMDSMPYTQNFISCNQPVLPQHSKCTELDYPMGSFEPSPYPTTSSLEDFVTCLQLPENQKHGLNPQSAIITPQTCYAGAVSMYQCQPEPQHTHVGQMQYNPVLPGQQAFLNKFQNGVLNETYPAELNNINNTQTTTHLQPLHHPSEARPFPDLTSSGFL
Procedure, shortened: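 Antagonism measured as loss of kynurenic acid-driven firefly luciferase from DRE reporter in stably transfected U87 MG cells; constitutive Renilla signal monitors cytotoxicity. Positive/negative control normalization, staurosporine 5 μM with 150 μM kynurenic acid as inhibition control; replicates given as mean or median.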

AHR [2] = target: T2, AHR (Mus musculus, UniProt P30561); assay: In vitro assay 3: antagonism in mouse cell line (AHR transactivation, firefly luciferase reporter, kynurenic acid prestimulated); assay type: cell-based
T2 sequence (P30561 1-848 P471L/N533S/M589L): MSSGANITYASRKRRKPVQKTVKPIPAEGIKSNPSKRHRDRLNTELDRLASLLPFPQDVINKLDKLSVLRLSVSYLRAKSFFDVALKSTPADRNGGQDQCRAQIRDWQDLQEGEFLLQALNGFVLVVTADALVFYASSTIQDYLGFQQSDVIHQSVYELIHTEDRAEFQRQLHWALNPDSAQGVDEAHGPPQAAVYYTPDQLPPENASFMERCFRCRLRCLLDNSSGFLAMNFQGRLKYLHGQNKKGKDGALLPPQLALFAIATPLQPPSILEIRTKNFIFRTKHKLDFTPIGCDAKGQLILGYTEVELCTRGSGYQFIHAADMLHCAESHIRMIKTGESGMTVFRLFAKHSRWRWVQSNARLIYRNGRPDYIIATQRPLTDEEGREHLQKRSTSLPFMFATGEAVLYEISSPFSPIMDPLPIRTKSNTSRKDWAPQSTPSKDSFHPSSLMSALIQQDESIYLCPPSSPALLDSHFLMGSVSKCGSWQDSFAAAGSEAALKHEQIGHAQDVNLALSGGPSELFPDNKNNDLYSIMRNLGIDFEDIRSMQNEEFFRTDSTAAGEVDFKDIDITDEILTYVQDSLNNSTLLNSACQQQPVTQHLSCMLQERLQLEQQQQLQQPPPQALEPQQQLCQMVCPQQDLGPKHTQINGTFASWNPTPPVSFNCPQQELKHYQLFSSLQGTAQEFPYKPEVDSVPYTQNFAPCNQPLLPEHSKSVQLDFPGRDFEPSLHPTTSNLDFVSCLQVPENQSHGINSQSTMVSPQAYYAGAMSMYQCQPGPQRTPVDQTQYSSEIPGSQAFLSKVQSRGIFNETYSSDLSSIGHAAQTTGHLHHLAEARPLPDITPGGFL
Procedure, shortened: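 Kynurenic acid-prestimulated mouse reporter cells; stable AHR-inducible firefly luc construct with DRE sites in promoter. No-agonist wells = positive inhibition ctrl. Luminescence normalized to pos/neg ctrls; n>1 reported as mean or median.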

[3] = Hepa 1c1c7 cells, 200 μM kynurenic acid, 20 hours, firefly luciferase reporter, read-out: AHR Antagonism Mouse IC50
[4] = read-out: AHR Antagonism Mouse IC50, Hepa 1c1c7 cells, 200 μM kynurenic acid, 20 hours, firefly luciferase reporter

SMILES | IC50 (AHR [1]) [M] | pIC50 (AHR [2]; [3]) | pIC50 (AHR [2]; [4])
COc1ccc(-c2nc3c4cccc(Br)c4nc(N[C@H](C)C(=O)N4CCO[C@@H](C)C4)n3n2)cc1 [Example 909, (2R)-2-{[7-bromo-2-(4-methoxyphenyl)[1,2,4]triazolo[1,5-c]quinazolin-5-yl]amino}-1-[(2S)-2-methylmorpholin-4-yl]propan-1-one] | 2.36e-09 | 8.77 | –
C[C@@H]1CN(C(=O)[C@@H](C)Nc2nc3c(Br)cccc3c3nc(-c4cnn(C)c4)nn23)CCN1C [Example 910, (2R)-2-{[7-bromo-2-(1-methyl-1H-pyrazol-4-yl)[1,2,4]triazolo[1,5-c]quinazolin-5-yl]amino}-1-[(3R)-3,4-dimethylpiperazin-1-yl]propan-1-one] | 2.4e-08 | 7.61 | –
COc1ccc(-c2nc3c4cccc(Br)c4nc(N[C@H](C)C(=O)N4CCOC[C@H]4C)n3n2)cc1 [Example 911, (2R)-2-{[7-bromo-2-(4-methoxyphenyl)[1,2,4]triazolo[1,5-c]quinazolin-5-yl]amino}-1-[(3R)-3-methylmorpholin-4-yl]propan-1-one] | 1.57e-09 | – | 8.70
C[C@@H]1COCCN1C(=O)[C@@H](C)Nc1nc2c(Br)cccc2c2nc(-c3cnn(C)c3)nn12 [Example 912, (2R)-2-{[7-bromo-2-(1-methyl-1H-pyrazol-4-yl)[1,2,4]triazolo[1,5-c]quinazolin-5-yl]amino}-1-[(3R)-3-methylmorpholin-4-yl]propan-1-one] | 2.16e-08 | 7.86 | –
COc1ccc(-c2nc3c4cccc(Br)c4nc(N[C@H](C)C(=O)N4CCN(C)[C@H](C)C4)n3n2)cc1 [Example 913, (2R)-2-{[7-bromo-2-(4-methoxyphenyl)[1,2,4]triazolo[1,5-c]quinazolin-5-yl]amino}-1-[(3R)-3,4-dimethylpiperazin-1-yl]propan-1-one] | 1.32e-09 | 8.77 | –
COc1ccc(-c2nc3c4cccc(Br)c4nc(N[C@H](C)C(=O)N4C[C@@H]5C[C@H]4CO5)n3n2)cc1 [Example 914, (2R)-2-{[7-bromo-2-(4-methoxyphenyl)[1,2,4]triazolo[1,5-c]quinazolin-5-yl]amino}-1-[(1S,4S)-2-oxa-5-azabicyclo[2.2.1]heptan-5-yl]propan-1-one] | 8.96e-10 | 8.87 | –
C[C@@H](Nc1nc2c(Br)cccc2c2nc(-c3cnn(C)c3)nn12)C(=O)N1C[C@@H]2C[C@H]1CO2 [Example 915, (2R)-2-{[7-bromo-2-(1-methyl-1H-pyrazol-4-yl)[1,2,4]triaozlo[1,5-c]quinazolin-5-yl]amino}-1-[(1S,4S)-2-oxa-5-azabicyclo[2.2.1]heptna-5-yl]propan-1-one] | 1.74e-08 | 7.73 | –
COc1ccc(-c2nc3c4cccc(Br)c4nc(N[C@H](C)C(=O)N4CC5(COC5)C4)n3n2)cc1 [Example 916, (2R)-2-{[7-bromo-2-(4-methoxyphenyl)[1,2,4]triazolo[1,5-c]quinazolin-5-yl]amino}-1-(2-oxa-6-azaspiro[3.3]heptan-6-yl)propan-1-one] | 1.06e-09 | – | 8.65
C[C@@H](Nc1nc2c(Br)cccc2c2nc(-c3cnn(C)c3)nn12)C(=O)N1CC2(COC2)C1 [Example 917, (2R)-2-{[7-bromo-2-(1-methyl-1H-pyrazol-4-yl)[1,2,4]triazolo[1,5-c]quinazolin-5-yl]amino}-1-(2-oxa-6-azaspiro[3.3]heptan-6-yl)propan-1-one] | 3.76e-08 | – | 7.18
COc1ccc(-c2nc3c4cccc(Br)c4nc(N[C@H](C)C(=O)N4CC5(CN(C)C5)C4)n3n2)cc1 [Example 918, (2R)-2-{[7-bromo-2-(4-methoxyphenyl)[1,2,4]triazolo[1,5-c]quinazolin-5-yl]amino}-1-(6-methyl-2,6-diazaspiro[3.3]heptan-2-yl)propan-1-one] | 3.07e-08 | 7.50 | –
C[C@@H](Nc1nc2c(Br)cccc2c2nc(-c3cnn(C)c3)nn12)C(=O)N1CC2(CN(C)C2)C1 [Example 919, (2R)-2-{[7-bromo-2-(1-methyl-1H-pyrazol-4-yl)[1,2,4]triazolo[1,5-c]quinazolin-5-yl]amino}-1-(6-methyl-2,6-diazaspiro[3.3]heptan-2-yl)propan-1-one] | 1.18e-06 | 6.21 | –
COc1ccc(-c2nc3c4cccc(Br)c4nc(N[C@H](C)C(=O)N4CC5(CN(C(=O)OC(C)(C)C)C5)C4)n3n2)cc1 [Example 920, tert-butyl 6-{N-[7-bromo-2-(4-methoxyphenyl)[1,2,4]triazolo[1,5-c]quinazolin-5-yl]-D-alanyl}-2,6-diazaspiro[3.3]heptane-2-carboxylate] | 7.45e-09 | 7.96 | –
C[C@@H](Nc1nc2c(Br)cccc2c2nc(-c3cnn(C)c3)nn12)C(=O)N1CC2(CN(C(=O)OC(C)(C)C)C2)C1 [Example 921, tert-butyl 6-{N-[7-bromo-2-(1-methyl-1H-pyrazol-4-yl)[1,2,4]triazolo[1,5-c]quinazolin-5-yl]-D-alanyl}-2,6-diazaspiro[3.3]heptane-2-carboxylate] | 4.24e-08 | 7.01 | –
COc1ccc(-c2nc3c4cccc(Br)c4nc(N[C@@H](C(=O)N4CCN(C)CC4)C(C)C)n3n2)cc1 [Example 922, (2R)-2-{[7-bromo-2-(4-methoxyphenyl)[1,2,4]triazolo[1,5-c]quinazolin-5-yl]amino}-3-methyl-1-(4-methylpiperazin-1-yl)butan-1-one] | 2.47e-09 | 8.69 | –
COCCNC(=O)[C@H](Nc1nc2c(Br)cccc2c2nc(-c3ccc(OC)cc3)nn12)C(C)C [Example 923, N^2-[7-bromo-2-(4-methoxyphenyl)[1,2,4]triazolo[1,5-c]quinazolin-5-yl]-N-(2-methoxyethyl)-D-valinamide] | 3.26e-09 | 8.67 | –
COc1ccc(-c2nc3c4cccc(Br)c4nc(N[C@@H](C(=O)NCCN4CCN(C)CC4)C(C)C)n3n2)cc1 [Example 924, N^2-[7-bromo-2-(4-methoxyphenyl)[1,2,4]triazolo[1,5-c]quinazolin-5-yl]-N-[2-(4-methylpiperazin-1-yl)ethyl]-D-valinamide] | 6.71e-09 | 8.42 | –
COc1ccc(-c2nc3c4cccc(Br)c4nc(N[C@@H](C(=O)N4CCOCC4)C(C)C)n3n2)cc1 [Example 925, (2R)-2-{[7-bromo-2-(4-methoxyphenyl)[1,2,4]triazolo[1,5-c]quinazolin-5-yl]amino}-3-methyl-1-(morpholin-4-yl)butan-1-one] | 6.08e-09 | 8.38 | –
CC(C)[C@@H](Nc1nc2c(Br)cccc2c2nc(-c3cnn(C)c3)nn12)C(=O)N1CCOCC1 [Example 926, (2R)-2-{[7-bromo-2-(1-methyl-1H-pyrazol-4-yl)[1,2,4]triazolo[1,5-c]quinazolin-5-yl]amino}-3-methyl-1-(morpholin-4-yl)butan-1-one] | 3.45e-08 | 8.21 | –
